Key:
human sEH = target: T1, human sEH (Homo sapiens, UniProt P34913); experiment: sEH inhibition assay; assay type: biochemical
T1 sequence (P34913 1-555): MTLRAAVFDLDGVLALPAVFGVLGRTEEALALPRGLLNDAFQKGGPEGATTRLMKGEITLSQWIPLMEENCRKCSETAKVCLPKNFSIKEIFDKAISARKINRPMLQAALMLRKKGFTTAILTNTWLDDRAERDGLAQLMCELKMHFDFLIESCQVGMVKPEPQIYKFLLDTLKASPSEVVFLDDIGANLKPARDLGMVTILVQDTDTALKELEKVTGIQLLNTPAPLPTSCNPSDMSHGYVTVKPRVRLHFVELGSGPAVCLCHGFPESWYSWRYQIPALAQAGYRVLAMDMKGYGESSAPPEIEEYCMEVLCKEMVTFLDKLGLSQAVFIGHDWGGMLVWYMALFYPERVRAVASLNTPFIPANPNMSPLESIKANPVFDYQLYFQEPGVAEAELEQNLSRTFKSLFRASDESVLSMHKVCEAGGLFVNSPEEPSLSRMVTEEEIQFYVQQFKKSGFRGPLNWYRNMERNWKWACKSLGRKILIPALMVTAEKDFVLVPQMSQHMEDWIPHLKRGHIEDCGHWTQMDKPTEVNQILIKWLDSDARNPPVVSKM

mouse sEH = target: T2, mouse sEH (Mus musculus, UniProt P34914); experiment: sEH inhibition assay; assay type: biochemical
T2 sequence (P34914 1-554): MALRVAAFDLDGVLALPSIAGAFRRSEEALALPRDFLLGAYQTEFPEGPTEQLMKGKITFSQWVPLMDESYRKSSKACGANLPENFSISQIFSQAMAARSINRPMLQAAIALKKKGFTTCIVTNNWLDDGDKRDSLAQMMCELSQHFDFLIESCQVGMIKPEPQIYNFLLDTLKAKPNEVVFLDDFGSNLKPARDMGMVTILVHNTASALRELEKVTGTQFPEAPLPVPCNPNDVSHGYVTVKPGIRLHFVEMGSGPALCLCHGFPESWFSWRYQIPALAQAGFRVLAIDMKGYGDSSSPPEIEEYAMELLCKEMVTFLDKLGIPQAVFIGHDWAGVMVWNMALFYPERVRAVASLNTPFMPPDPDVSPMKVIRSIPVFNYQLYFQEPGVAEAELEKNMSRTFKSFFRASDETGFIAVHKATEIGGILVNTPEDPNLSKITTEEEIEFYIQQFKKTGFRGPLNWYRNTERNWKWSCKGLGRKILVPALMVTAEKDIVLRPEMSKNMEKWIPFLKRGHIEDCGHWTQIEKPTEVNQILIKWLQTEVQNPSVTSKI

Mu opioid (MOR) = Mu opioid (MOR) (Homo sapiens, UniProt P35372); experiment: NIMH PDSP binding screen; details: read-out: Inhibition (%) Mu opioid (MOR)
Nociceptin (NOP) = Nociceptin (NOP) (Homo sapiens, UniProt P41146); experiment: NIMH PDSP binding screen; details: read-out: Inhibition (%) Nociceptin (NOP)
5-HT1B = 5-HT1B (Homo sapiens, UniProt P28222); experiment: NIMH PDSP binding screen; details: read-out: Inhibition (%) 5-HT1B
5-HT2C = target: T3, 5-HT2C (Homo sapiens, UniProt P28335); experiment: NIMH PDSP binding screen; details: read-out: Inhibition (%) 5-HT2C
T3 sequence (P28335 33-458): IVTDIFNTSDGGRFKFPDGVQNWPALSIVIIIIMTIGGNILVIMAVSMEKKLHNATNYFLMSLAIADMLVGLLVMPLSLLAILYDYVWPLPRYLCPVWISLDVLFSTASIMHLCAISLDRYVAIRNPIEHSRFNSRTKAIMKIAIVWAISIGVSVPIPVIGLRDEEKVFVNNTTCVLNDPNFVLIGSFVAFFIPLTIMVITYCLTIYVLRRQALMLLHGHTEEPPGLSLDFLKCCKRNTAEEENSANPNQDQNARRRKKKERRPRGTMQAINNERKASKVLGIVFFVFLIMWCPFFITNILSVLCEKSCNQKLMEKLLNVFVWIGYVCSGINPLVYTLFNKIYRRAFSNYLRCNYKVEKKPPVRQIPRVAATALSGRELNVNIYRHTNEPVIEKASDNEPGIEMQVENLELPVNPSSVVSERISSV

Chain of Nociceptin (NOP) (P41146 whole entry): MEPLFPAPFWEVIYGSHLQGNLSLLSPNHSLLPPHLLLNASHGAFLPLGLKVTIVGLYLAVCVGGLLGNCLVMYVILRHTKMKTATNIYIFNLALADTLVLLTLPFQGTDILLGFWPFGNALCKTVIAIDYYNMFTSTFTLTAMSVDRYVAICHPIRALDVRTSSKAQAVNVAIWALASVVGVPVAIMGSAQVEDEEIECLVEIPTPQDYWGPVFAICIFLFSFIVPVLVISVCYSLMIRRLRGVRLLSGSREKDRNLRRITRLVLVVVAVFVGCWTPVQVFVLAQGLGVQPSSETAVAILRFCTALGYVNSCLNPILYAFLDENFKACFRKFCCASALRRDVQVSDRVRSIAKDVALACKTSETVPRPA
Chain of 5-HT1B (P28222 whole entry, species assumed): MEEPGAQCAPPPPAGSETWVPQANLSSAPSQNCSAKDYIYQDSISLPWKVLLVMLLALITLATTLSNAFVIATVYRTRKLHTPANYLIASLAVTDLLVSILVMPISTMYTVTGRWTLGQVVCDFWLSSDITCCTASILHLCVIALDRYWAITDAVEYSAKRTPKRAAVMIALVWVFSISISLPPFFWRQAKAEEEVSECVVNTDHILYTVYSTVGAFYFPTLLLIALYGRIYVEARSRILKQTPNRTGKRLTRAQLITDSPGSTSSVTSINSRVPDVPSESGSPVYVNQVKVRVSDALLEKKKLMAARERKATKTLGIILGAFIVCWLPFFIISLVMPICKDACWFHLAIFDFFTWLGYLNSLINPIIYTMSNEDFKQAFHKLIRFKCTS
Chain of Mu opioid (MOR) (P35372 whole entry): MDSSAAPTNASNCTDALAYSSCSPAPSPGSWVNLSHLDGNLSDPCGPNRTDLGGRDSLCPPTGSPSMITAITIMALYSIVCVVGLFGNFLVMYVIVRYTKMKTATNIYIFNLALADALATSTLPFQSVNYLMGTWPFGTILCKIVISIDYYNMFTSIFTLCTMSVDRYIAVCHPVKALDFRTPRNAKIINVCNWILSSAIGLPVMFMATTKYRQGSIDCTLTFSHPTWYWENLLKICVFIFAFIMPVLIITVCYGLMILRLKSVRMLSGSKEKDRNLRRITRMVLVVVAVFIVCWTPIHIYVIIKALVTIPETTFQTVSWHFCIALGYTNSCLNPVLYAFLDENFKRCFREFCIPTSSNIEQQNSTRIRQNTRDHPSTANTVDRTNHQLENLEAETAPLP

Compound `O=C(Nc1ccc(-c2cnc3ccccc3n2)cc1)C1CCN(S(=O)(=O)c2ccccc2Cl)CC1` [Compound 4m, 1-((2-chlorophenyl)sulfonyl)-N-(4-(quinoxalin-2-yl)phenyl)piperidine-4-carboxamide] has an IC50 (human sEH) of 0.0007 µM, an IC50 (mouse sEH) of 0.0391 µM and an inhibition at 10 µM (Mu opioid (MOR)) of -1 ± 1.63%. It also gave an inhibition at 10 µM (Nociceptin (NOP)) of -5.22 ± 3.98%, an inhibition at 10 µM (5-HT1B) of 22.2 ± 6.67% and an inhibition at 10 µM (5-HT2C) of -18.2 ± 3.45%.

— paper PMC12814486 (Bioorganic & medicinal chemistry, 2025)
